Results on ten molecules are retold here after patent US4424351A, “Pyrido[3,4-e]-as-triazines” (Egyt Gyogyszervegyeszeti Gyar, priority 1979, dated 1984).

Data set [1] concerns animals treated with tetrabenazine. Description: tetrabenazine-antagonizing effect (closed palpebral fissures). Type of data set: in vivo. The conditions noted are these: for ED50: Mus musculus, oral, 30 min before 50 mg/kg tetrabenazine p.o., readings at 30, 60, 90 and 120 min summed; for Therapeutical index (LD50/ED50), tetrabenazine-antagonizing effect: LD50/ED50, p.o. The method, then: The tetrabenzine-antagonizing effect of the new compounds was tested on groups consisting of 10 mice each. The animals belonging to the control group received an oral dosage of 20 ml/kg of 0.9% aqueous sodium chloride solution, whereas the other animals were treated orally with the compound to be tested. 30 minutes after the introduction of the active agent or the vehicle 50 mg/kg of tetrabenazine (3-isobutyl-9,10-[…]-1,2,3,4,6,7-hexahydrobenzo[a]quinolisine-2-one) were administered orally into the animals, and the animals with closed palpebral fissures were counted 30, 60, 90 and 120 minutes after the administration of tetrabenazine. The data obtained in the individual measuring times were added, and the percentage inhibition related to the controls was calculated.

For data set [2], the system named is mice. Description: potentiation of hexobarbital-induced narcosis (method of Kaergaard et al.). It is filed as in vivo. The settings on record: for Therapeutical index (LD50/ED50), potentiation of hexobarbital-induced narcosis: LD50/ED50, mice p.o.; for ED50: Mus musculus, mice, oral, then 40 mg/kg hexobarbital i.v., 150% prolongation of sleeping time = positive, read-out: ED50 p.o. (potentiation of hexobarbital-induced narcosis). The method, then: The hexobarbital-induced narcosis potentiating effect of the new compounds was tested by the method of Kaergaard et al. (Arch. Int. Pharmacodyn. 2, 170 /1967/) on groups consisting of 6 mice each. The animals belonging to the control group received an oral dosage of 20 ml/kg of 0.9% aqueous sodium chloride solution, whereas the other animals were treated orally with the compound to be tested. Thereafter 40 mg/kg of hexobarbital (5-/1-cyclohexenyl/-[…]) were administered intravenously into the animals. A 150% prolongation of the sleeping time, related to the average value observed in the controls, was regarded as positive response. The number of animals giving positive response was compared to the total number of the animals treated.

The nature of a further data set: in vivo. The settings on record: mouse, mice, oral. The method, then: The acute toxicity of the new compounds having the general formula (I) was tested on mice. The substances to be tested were administered orally to the animals.
The next data set relates to rats. Description: antiphlogistic effect, carrageenine-induced paw swelling (method of Winter). Type of data set: in vivo. The settings on record: Rattus norvegicus, oral, paw volume before and 3 h after 0.1 ml 1% carrageenine, read-out: Dosage exerting 30% inhibition (antiphlogistic effect). The method, then:
The antiphlogistic effect of the new compounds according to the invention was investigated on rats by the method of Winter (J. Pharm. Exp. […] The volume of the treated paw was measured by […] before and 3 hours after challenge. The compounds to be tested were administered orally into the animals.
Background: Carrageenan injected into the paw causes an acute inflammation.

The test system of the next data set is white mice. Description: motility inhibiting effect (orientation reflex, eight-channel Dews apparatus). The conditions noted are these: for Therapeutical index (LD50/ED50), motility inhibiting effect: LD50/ED50, Dews apparatus, mice p.o.; for ED50: Mus musculus, 0.5 h, white mice, oral, pre-treatment of 30 minutes, light beam interceptions, read-out: ED50 p.o. (motility inhibiting effect). It is filed as in vivo. The method, then:
The effect of the new compounds exerted on the orientation reflex was tested on white mice in an eight-channel Dews apparatus, according to the method of Borsy et al. (Arch. Int. Pharmacodyn. 124, 1-2 /1960/). The number of light beam interceptions, caused by the movement of the animals, was recorded after a pre-treatment of 30 minutes. The test groups consisted of 3 mice. The ED50 values obtained in the investigation of motility-inhibiting effect, furthermore the therapeutical indices (LD50 /ED50) calculated therefrom are listed in Table 4.

Data set [3] concerns mice. Description: analgesic effect, writhing test (acetic acid i.p.). The settings on record: for Therapeutical index (LD50/ED50), analgesic effect: LD50/ED50, writhing test, mice p.o.; for ED50: Mus musculus, mice, oral 1 h before 0.4 ml of 0.5% acetic acid i.p., dosage decreasing number of writhings by 50%, read-out: ED50 p.o. (analgesic effect). It is filed as in vivo. The method, then: The analgesic effect of the new compounds according to the invention was investigated on mice by the so-called writhing test. […] The animals were treated orally with the compound to be tested one hour before the introduction of acetic acid. The animals belonging to the control group received vehicle only.
A general note: In writhing tests, fewer writhes than in controls are read as antinociception.

The structures appear in SMILES notation.

For `CN(C)CCC=C1c2ccccc2CCc2ccccc21` [Amitryptiline, reference compound], the 50% effect level in data set [1] (ED50) was put at a dose of 12 mg/kg.
Consider `CCC(=O)N1N=C(c2ccccc2)Nc2cnccc21.Cl` [12 (HCl), 3-phenyl-1-propionyl-1,4-dihydro-pyrido[3,4-e]-as-triazine hydrochloride], for which, in the data set on mice [2], the “Therapeutical index (LD50/ED50), potentiation of hexobarbital-induced narcosis” value is listed as 200 and the ED50 came out at 10 mg/kg. The molecule also gave an LD50 in the data set “in vivo” of 2000 mg/kg. Moreover, the ED30 in the data set on rats was 30 mg/kg. In addition, in data set [1], the “Therapeutical index (LD50/ED50), tetrabenazine-antagonizing effect” value is 50 and the ED50 came to 40 mg/kg. In the data set on white mice, the “Therapeutical index (LD50/ED50), motility inhibiting effect” value came to 40 and the ED50 was 50 mg/kg.
Take `CCC(=O)N1N=C(C)Nc2cnccc21` [Example 11, 3-Methyl-1-propionyl-1,4-dihydropyrido[3,4-e]-as-triazine]: in the data set on mice [2], the “Therapeutical index (LD50/ED50), potentiation of hexobarbital-induced narcosis” value worked out at 25 and the ED50 came to 20 mg/kg. Further, the LD50 in “in vivo” amounted to 500 mg/kg. For the same molecule, in the data set with rats, the ED30 turned out to be 30 mg/kg.
On to `CC(=O)N1N=C(c2ccccc2)Nc2cnccc21` [Example 17, 3-phenyl-1-acetyl-1,4-dihydropyrido[3,4-e]-as-triazine], for which, in the data set with mice [2], the “Therapeutical index (LD50/ED50), potentiation of hexobarbital-induced narcosis” value is 40 and the ED50 amounted to 35 mg/kg. This molecule also yielded an LD50 in the data set “in vivo” of 1400 mg/kg. Besides, in the data set with mice [3], the “Therapeutical index (LD50/ED50), analgesic effect” value is recorded as 60.87 and the ED50 was 23 mg/kg. For the same molecule, in data set [1], the “Therapeutical index (LD50/ED50), tetrabenazine-antagonizing effect” value is on record as 25 and the ED50 was 56 mg/kg. Moreover, in the data set on white mice, the “Therapeutical index (LD50/ED50), motility inhibiting effect” value is given as 46.67 and the median effective dose (ED50) worked out at 30 mg/kg.
In “in vivo”, `CCC(=O)N1C=NN(C(=O)CC)c2ccncc21` [Example 18, 1,4-dipropioyl-1,4-dihydropyrido[3,4-e]-as-triazine] showed an LD50 of 450 mg/kg. Moreover, the ED30 in the data set with rats came to 12 mg/kg. Moreover, in the data set with mice [3], the “Therapeutical index (LD50/ED50), analgesic effect” value turned out to be 75 and the ED50 amounted to 6 mg/kg.
Take `CC(=O)N1C=NN(C(C)=O)c2ccncc21` [Example 1, 1,4-diacetyl-1,4-dihydropyrido[3,4-e]-as-triazine]: in the data set on mice [2], the “Therapeutical index (LD50/ED50), potentiation of hexobarbital-induced narcosis” value is 11.4 and the ED50 stood at 25 mg/kg. Besides, the LD50 in the data set “in vivo” was 360 mg/kg. Moreover, the ED30 with rats was 25 mg/kg.
Regarding `CCC(=O)N1N=C(c2ccccc2)Nc2cnccc21` [Example 12, 3-phenyl-1-propionyl-1,4-dihydropyrido[3,4-e]-as-triazine], in the data set with mice [2], the “Therapeutical index (LD50/ED50), potentiation of hexobarbital-induced narcosis” value was 32.3 and the ED50 was determined as 62 mg/kg. For the same molecule, in “in vivo”, the LD50 was over 2000 mg/kg. Besides, the ED30 in the data set on rats is 26 mg/kg. In the data set with mice [3], the “Therapeutical index (LD50/ED50), analgesic effect” value is recorded as “above 40” and the ED50 was found to be 50 mg/kg. Besides, in the data set on white mice, the “Therapeutical index (LD50/ED50), motility inhibiting effect” value was over 57.4 and the ED50 is 35 mg/kg.
Turning to `CCCC(=O)N1N=C(c2ccccc2)Nc2cnccc21` [Example 19, 3-phenyl-1-butyryl-1,4-dihydropyrido[3,4-e]-as-triazine], in the data set on mice [2], the “Therapeutical index (LD50/ED50), potentiation of hexobarbital-induced narcosis” value is 10 and the ED50 came to 150 mg/kg. For the same molecule, the LD50 in “in vivo” was 1500 mg/kg. The ED30 with rats came to 13 mg/kg. Moreover, in the data set with mice [3], the “Therapeutical index (LD50/ED50), analgesic effect” value is on record as 20 and the ED50 is 75 mg/kg. Further, in data set [1], the “Therapeutical index (LD50/ED50), tetrabenazine-antagonizing effect” value is listed as 75 and the 50% effect level (ED50) was put at a dose of 20 mg/kg. For the same molecule, in the data set with white mice, the “Therapeutical index (LD50/ED50), motility inhibiting effect” value was 16.67 and the ED50 turned out to be 90 mg/kg.
`CCCC(C)(COC(N)=O)COC(N)=O` [Meprobamate, reference compound]: in the data set on mice [2], the “Therapeutical index (LD50/ED50), potentiation of hexobarbital-induced narcosis” value was 4.1 and the ED50 came to 270 mg/kg. Moreover, in the data set on white mice, the “Therapeutical index (LD50/ED50), motility inhibiting effect” value is 14.1 and the ED50 worked out at 270 mg/kg.
`CCCCC1C(=O)N(c2ccccc2)N(c2ccccc2)C1=O` [Phenylbutazone, reference compound]: in the data set on rats, the ED30 turned out to be 90 mg/kg. Also, the median effective dose (ED50) with mice [3] is 65 mg/kg.

As usually defined, the ED50 is the dose that gives a 50% effect, or the effect in half of the subjects. The term LD50 denotes the dose expected to kill half of the subjects tested.
